# Data: patent US6949506B2, “Relaxin-like factor and methods and uses thereof” (BAS Medical, Inc., priority 1995, dated 2005)
# Positions of bridges follow the written chain, without caps; N, C: chain ends. Chains are numbered I, II in the order given. No end group written: not given here.
# Experiments:
# washed human sperm = test: Sperm motility assay; format: cell-based; settings: 10 and 100 ng/ml
# Source text: Materials And Methods. Semen is obtained by masturbation from healthy volunteers. The sample is allowed to liquefy at room temperature and is then mixed with Minimum Essential Medium (MEM) with Hepes buffer added. This medium is used because it coincides with that washing medium employed by the in vitro clinic at MUSC. The sperm is then separated from the seminal fluid and MEM by centrifugation. The resultant sperm pellet is then resuspended in MEM at room temperature. Aliquots are then place in siliconized centrifuge tubes and one of several compounds added: l)human relaxin 10 ng/ml, 2)human relaxin 100 ng/ml, 3)relaxin-like factor 10 ng/ml, 4)relaxin-like factor 100 ng/ml, 5)one fraction of alkaline gland fluid from stingrays diluted 1:8 with pentoxyfyline. The additive is mixed well with the sperm/medium mixture. Samples are taken at 0, 2, 4, 6 and 24 hour intervals for automated determination of the following parameters: 1)motility, 2)progressivity, 3)path velocity, 4)progressive velocity, 5)track speed, 6)elongation, 7)lateral displacement, 8)cross beat frequency, 9)straightness, 10)linearity. Briefly described, each sample is loaded into a Maker heated specimen chamber and viewed in a light microscope equipped with laser doppler optics (IVOS, Beverly, Mass.).
# [1] = system: fibronectin expression, rheumatoid synovial fibroblasts; test: Inhibition of fibronectin expression by synovial fibroblasts; format: cell-based, human; settings: 100 ng/ml; TGF-β-treated fibroblasts
# Source text: The method for detecting and measuring collagen formation in the presence of relaxin described in Unemori and Amento, 1990, J. Biol. Chem. 265:10681-685 has been modified as follows to determine the ability of RLF, in vitro, to modulate the expression of fibronectin.
# Materials And Methods. Specifically, using the method described in section 6.7.1., the fibronectin band was identified by size (220 kDa), bacterial collagenase-resistance, and positive staining using commercially available polyclonal anti-fibronectin antibody (Promega). The fibronectin band was scanned densitometrically to estimate levels of expression.
# uterine relaxin receptor = biological target: T1, uterine relaxin receptor (Mus musculus, UniProt Q6R6I7); test: Relaxin-binding assay, mouse uterus crude membranes, porcine relaxin tracer
# T1 construct: brain, and uterus (of estrogen primed mice); from tissue; host or cells: uterus of estrogen-primed mice, crude membranes
# T1 sequence (Q6R6I7 1-758): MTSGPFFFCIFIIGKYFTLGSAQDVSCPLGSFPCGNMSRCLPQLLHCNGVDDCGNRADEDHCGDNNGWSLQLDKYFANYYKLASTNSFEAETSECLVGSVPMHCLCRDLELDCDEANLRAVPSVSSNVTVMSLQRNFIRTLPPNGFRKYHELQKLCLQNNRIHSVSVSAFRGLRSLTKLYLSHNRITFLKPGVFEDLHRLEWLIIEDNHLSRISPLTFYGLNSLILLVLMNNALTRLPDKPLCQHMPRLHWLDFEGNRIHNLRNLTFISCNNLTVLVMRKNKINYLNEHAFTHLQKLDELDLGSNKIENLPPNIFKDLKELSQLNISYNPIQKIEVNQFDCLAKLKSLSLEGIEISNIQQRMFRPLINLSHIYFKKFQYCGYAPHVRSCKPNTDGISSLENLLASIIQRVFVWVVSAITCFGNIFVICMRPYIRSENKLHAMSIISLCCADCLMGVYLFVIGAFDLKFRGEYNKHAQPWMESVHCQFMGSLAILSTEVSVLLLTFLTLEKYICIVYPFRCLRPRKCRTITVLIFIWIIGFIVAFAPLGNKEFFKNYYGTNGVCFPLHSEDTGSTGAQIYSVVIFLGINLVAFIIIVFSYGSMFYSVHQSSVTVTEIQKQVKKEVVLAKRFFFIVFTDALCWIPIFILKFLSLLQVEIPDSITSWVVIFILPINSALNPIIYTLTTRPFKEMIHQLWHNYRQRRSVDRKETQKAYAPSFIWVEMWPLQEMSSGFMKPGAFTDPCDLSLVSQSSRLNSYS
# Experimental: (§1) Relaxin-binding assays were performed as described in Yang, et al., 1992, Endocrinology 130:179-185 and Büllesbach, et al., 1994, Endocrine. 2:1115-1120, using crude membrane preparations of mouse tissue. Mouse brains of 2 mice were collected into 15 ml of chilled buffer (25 mM HEPES, 0.14 M NaCl, 5.7 mM KCI, 0.2 mM phenylmethylsulfonyl-fluoride, and 80 mg/ml soybean trypsin inhibitor, pH 7.5) supplemented with sucrose (0.25 M, final concentration). The tissue was homogenized on ice for 10 s with a Polytron homogenizer (Brinlmann, Westbury, N.Y.) at setting 5. The homogenate was centrifuged at 700 rpm for 10 min at 4° C. and the supernatants were recentrifuged at 10,000×g for 1 h. The pellet was resuspended in 15 ml of ice cold binding buffer, 25 mM HEPES, 0.14 M NaCl, 5.7 mM KCI, 0.2 mM phenylmethylsulfonylfluoride, and 80 mg/ml soybean trypsin inhibitor, pH 7.5, supplemented with 1% bovine serum albumin, and centrifuged for 1 h at 10,000×g. […] The supernatant was discarded, the tip of the vial cut and counted in a γ-counter. Nonspecific binding was determined in the presence of 2 μl/ml of unlabeled competitor (0.33 μM). […]
# Tissue specificity was determined using crude membrane preparations of leg muscles, kidneys, liver. brain, and uterus (of estrogen primed mice). […] Binding was based on protein concentration determined by Lowry.
# RLF receptor (uterus) = biological target: T2, RLF receptor (uterus) (Mus musculus, UniProt Q91ZZ5); test: Binding assay, mouse uterus crude membranes, hRLF tracer
# T2 construct: brain, and uterus (of estrogen primed mice); from tissue; host or cells: uterus of estrogen-primed mice, crude membranes
# Experimental: as §1
# Tissue specificity was determined using crude membrane preparations of leg muscles, kidneys, liver. brain, and uterus (of estrogen primed mice). […] Binding was based on protein concentration determined by Lowry. […]
# T2 sequence (Q91ZZ5 whole entry): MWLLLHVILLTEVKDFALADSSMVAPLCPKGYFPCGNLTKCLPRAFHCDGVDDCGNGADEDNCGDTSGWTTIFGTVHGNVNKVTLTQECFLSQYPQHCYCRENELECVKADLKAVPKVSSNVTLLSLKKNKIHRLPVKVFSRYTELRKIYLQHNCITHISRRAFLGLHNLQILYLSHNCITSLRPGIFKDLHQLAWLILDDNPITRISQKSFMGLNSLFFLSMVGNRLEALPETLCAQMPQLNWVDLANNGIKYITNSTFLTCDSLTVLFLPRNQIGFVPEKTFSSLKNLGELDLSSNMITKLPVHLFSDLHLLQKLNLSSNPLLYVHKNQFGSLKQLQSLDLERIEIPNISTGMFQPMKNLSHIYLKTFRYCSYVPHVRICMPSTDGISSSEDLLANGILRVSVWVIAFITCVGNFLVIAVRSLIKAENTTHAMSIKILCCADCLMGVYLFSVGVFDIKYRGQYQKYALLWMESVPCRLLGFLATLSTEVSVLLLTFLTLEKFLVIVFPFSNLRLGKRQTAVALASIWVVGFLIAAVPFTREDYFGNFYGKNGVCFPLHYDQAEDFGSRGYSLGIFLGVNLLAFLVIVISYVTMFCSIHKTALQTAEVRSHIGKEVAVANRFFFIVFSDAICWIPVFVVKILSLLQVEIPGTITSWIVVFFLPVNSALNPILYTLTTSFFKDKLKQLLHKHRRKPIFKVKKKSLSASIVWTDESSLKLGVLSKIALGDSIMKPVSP
substance,measurement,setting,value
"RLF: synthesized human relaxin-like factor, two-chain peptide (A and B chain, SEQ ID NOS:3 and 4), three disulfide links (alpha AAATNPARYCCLSGCTQQDLLTLCPY; beta PTPEMREKLCGHHFVRALVRVCGGPRWSTEA; disulfide I:11-II:10; also: two further disulfide bonds, places not given here)",potency in maintaining sperm motility relative to relaxin,washed human sperm,as potent in maintaining sperm motility at both doses as was relaxin
same,effect on sperm motility compared to untreated controls,washed human sperm; 0-24 h,preserve the motility
same,decrease of TGF-β-stimulated fibronectin expression,[1],17%
same,recognition by the uterine relaxin receptor,uterine relaxin receptor,barely recognizes
same,50% Binding,uterine relaxin receptor; tracer pRLX,10000 ng
same,50% Binding,RLF receptor (uterus),0.3 ng
